Row | melting point [°C] | SMILES
1 | 158 to 160 | O=C1N(Cc2ccncn2)c2ccccc2C12COc1cc3c(cc12)CCO3 (centres undefined)
2 | > 230 | N#Cc1c(O)ccc2oc(-c3ccc(O)cc3)cc12
3 | 169 to 171 | CC(=O)n1nc(-c2cc(C(C)(C)C)c(O)c(C(C)(C)C)c2)c2cccnc21
4 | 56 to 57 | CN(C)C(=O)c1ccccc1Sc1ccc(F)cc1[N+](=O)[O-]
5 | 210 | O=c1[nH]ncc2cc(/C=C\c3ccc(O)cc3)ccc12
6 | 216 | CC(C)(C)C1=NN(c2ccc(C(=O)O)cc2)C(c2cccc(Br)c2)C1 (centres undefined)
7 | 219 to 222 | Cc1c(-c2ccc(NC(=O)C(C)C)cc2)sc2c1c(=O)c(C(=O)C(C)C)cn2Cc1c(F)cccc1F
8 | 151 to 153 | CCCCOc1ccc2c(O)c(C(=O)NCC(=O)O)ncc2c1
9 | 194 | OCC1(c2nn(Cc3ccccc3F)c3nccnc23)CC=CO1 (centres undefined)
10 | 191 to 192 | Nc1cc(N2CC(COc3ccccc3)OC2=O)ccn1 (centres undefined)
11 | 65 to 66 | CCCCCCCCCCCCc1ccccc1C(SCC(=O)O)C(=O)O (centres undefined)
12 | 161 to 163 | CCOC(=O)C(O)CCn1cnc2c(=O)[nH]c(N)nc21 (centres undefined)
13 | 220 to 221 | CC1(C)CCC(C)(C)c2cc(C(O)C(=O)Nc3ccc(C(=O)O)cc3)ccc21 (centres undefined)
14 | 136 to 138 | Cc1c(C)c2c(c(C)c1N)CC(C)(CN1CCN(C(=O)c3ccc(Cl)cc3)CC1)O2 (centres undefined)
15 | 53 to 56 | O=C(O)CN[C@H]1C[C@H](O)CO1 (relative stereo)
16 | 190 to 191 | COc1ccc(CC(=O)NC(NC(=NC#N)Nc2cc(F)ccc2F)C(C)(C)C)cc1OC (centres undefined)
17 | 205 to 206 | Cc1c(CO)cccc1NC(=O)CC12CC3CC(CC(C3)C1)C2
18 | 225 to 227 | O=C(O)CC(=O)Nc1cc2ccccc2cc1C(=O)O
19 | 95 | CN1CCC(OC2c3cccc(-c4ccc(F)cc4)c3CCn3cc(-c4ccccc4)nc32)CC1 (centres undefined)
20 | 118 to 119 | CCC(O)(CC)C1(c2onc(-c3ccc(O)cc3)c2-c2ccccc2)CC1
21 | 136 to 138 | CCC(Oc1ccccc1F)C(=O)OC1CC(O)C=C2C=CC(C)C(CCC3CC(O)CC(=O)O3)C21 (mixture of isomers)
22 | 186 | CCOc1ccc2c(c1)n(C1CCCCC1)c(=O)n2Cc1ccc(C(=O)NC(C)(C)C)cc1OC
23 | 137 | CCOCc1nnc2c(C(F)(F)F)c(CN[C@H]3CC[C@@H](c4ccccc4)CC3)ccn12
24 | 97 | CCOc1ccc2[nH]c(=O)n(-c3ccccc3Cl)c2c1
25 | 208 to 210 | CCN(CC)C1CCN(c2cccc(-c3cnn4c(N)c(-c5ccc(F)cc5)c(C)nc34)c2)CC1

Row | melting point [°C] | SMILES
26 | 97 to 98 | CCCCn1nc(C)c(CC(=O)O)c1C
27 | 240 to 243 | Cc1nc(NC(=O)n2ccnc2)sc1-c1ccnc(CC2CC2)n1
28 | 82 to 84 | C[C@@H](O)CCN1CCC(c2noc3cc(F)ccc23)CC1
29 | 52 to 54 | COc1ccc(Cl)cc1C(=O)CCCCCl
30 | 105 to 106 | O=CC1=CCC(F)(C2COC(c3c(F)cccc3F)=N2)C=C1 (centres undefined)
31 | 180 to 181 | N#Cc1ccc2[nH]c3ccccc3c2c1
32 | 184 to 185 | COC(=O)C(=CN(C)C)N(C)c1nc(-c2ccc(Br)cc2)cs1
33 | 189 to 191 | CN(C)NC(=O)NC1c2ccccc2Oc2ccccc21
34 | 118 | Cc1nnc(C(F)(F)F)n1-c1ccccc1
35 | 120 | CC1(O)CSC(=S)N1c1ccccn1 (centres undefined)
36 | 175 to 177 | NC(=O)C(Cc1ccccc1N1CCCCC1)c1ccc(C(=O)O)cc1 (centres undefined)
37 | 44 to 46 | CCC(=O)Oc1ccc(C#N)cc1
38 | 129 to 130 | CCOc1cc2cc3c(Nc4cc(OC)c(Cl)cc4C)c(C#N)cnc3cc2cc1OCCCl
39 | 206 to 208 | COC(=O)c1ccc(-c2nc(Nc3cc(OC)c(OC)c(OC)c3)ncc2C#N)cc1
40 | 182 to 184 | Nc1ncnc2c1c(-c1ccc(Oc3ccccc3)cc1)cn2C1CCNC1 (centres undefined)
41 | 155 to 157 | O=C1CC(Br)CCCCCCCCCN1 (centres undefined)
42 | 216 to 217 | CCc1ccc(N2CCN(Cc3c[nH]c4ncccc34)CC2)cc1
43 | 145 to 148 | COC1=CC(=O)C(Cc2ncn(C(c3ccccc3)(c3ccccc3)c3ccccc3)c2C)CC1 (centres undefined)
44 | 103 to 106 | CSCCCCC(c1cc(F)ccc1F)S(=O)(=O)c1ccc(Cl)cc1 (centres undefined)
45 | 285 | Cc1csc2[nH]cc(C#N)c(=O)c12
46 | 305 to 306 | N#Cc1ccc(-c2cnc(-c3ccc(C#N)cc3)nc2)cc1
47 | 277 to 279 | O=C1c2cccc3cc([N+](=O)[O-])cc(c23)C(=O)N1O
48 | 88 to 92 | Cc1ccc2ccc3ccccc3c2c1O
49 | 176 to 177 | CC(COc1ccc(CC2SC(=O)NC2=O)cc1)NCC(O)CSc1ccccc1 (centres undefined)
50 | 105 to 106 | Cn1c(CCNS(C)(=O)=O)nnc1NCCCOc1cccc(CN2CCCCC2)c1

Row | melting point [°C] | SMILES
51 | 162 to 164 | Cc1[nH]c(=O)n(-c2cc(OC(C)C)c(Cl)cc2F)c(=O)c1F
52 | 135 to 137 | Clc1ccc(C2(c3ccccc3)OC2n2ccnc2)c(Cl)c1 (centres undefined)
53 | 259 to 261 | O=C1Cc2c(ccc3ccccc23)C(c2ccccc2F)N1 (centres undefined)
54 | 145 to 148 | CONC(=O)Nc1cc(C(C)(C)C)on1
55 | 88 to 89 | CN(C)C(=O)N(N)c1ccc(F)c(Cl)c1
56 | 246 to 248 | COc1cc(C(=O)c2ccnc3ccccc23)cc([N+](=O)[O-])c1O
57 | 155 | O=C(O)COc1cc(Cl)ccc1C(=O)NCc1cccc(F)c1
58 | > 300 | Cc1cc(C(=O)O)cc(C)c1C(=O)O
59 | 216 | CCCC1=C(C(=O)OCC)C(c2ccccc2S(C)=O)c2c[nH]nc2N1 (centres undefined)
60 | 190 to 192 | O=COCc1cc2c3ccccc3[nH]c(=O)n2n1
61 | 238 to 241 | Cn1cc(C2=C(c3csc4ccccc34)C(=O)NC2=O)c2ccccc21
62 | 73 to 76 | COc1ccc(-c2ccc(F)cc2F)cc1
63 | 80 to 82 | ClCCc1nc2c(ccc3ccccc32)o1
64 | 189 to 190 | O=Cc1ccc(-c2ccccc2-c2nnn[nH]2)cc1
65 | 228 to 234 | COc1cc2c(cc1OC)CN(CCNc1ccc(NC(=O)c3cccc4c(=O)c5cccc(OC)c5[nH]c34)cc1)CC2
66 | 68 to 70 | CCCCCCOc1ccccc1C(=N)OCC
67 | 273 to 275 | O=c1oc2c(c(O)c1Sc1ccc(Cl)cc1)c(=O)n(Cc1ccccc1)c1ccccc21
68 | 194 to 195 | CN1C(=O)C(C)(C)C(=O)N(C)c2cc(Br)ccc21
69 | 117 to 121 | CC(CC(C)(C)C)CP(=O)(O)C1OC(=O)c2ccccc21 (centres undefined)
70 | 260 to 262 | CCOC(=O)Nc1ccc(-c2c[nH]c(=O)cn2)cc1
71 | 210 to 212 | Nc1nc2ccccc2c2c1ncn2CCCCNC(=O)c1ccccc1
72 | 222 to 223 | Cc1cc(-c2nc3cccnn3c2-c2ccnc(NC(=O)NC3CC3)c2)ccc1F
73 | 194 to 195 | CC(C)(C(N)=O)c1cn2nc(Cl)ccc2n1
74 | 84.5 to 86.5 | COC(=O)c1ccccc1-c1noc(-c2cccc(C(F)(F)F)c2)n1
75 | 206 to 209 | COc1ccc(Cc2cnc(N)nc2N)cc1

Row | melting point [°C] | SMILES
76 | 176 to 177 | O=C1NC(=O)C(CC#Cc2ccc(Cl)cc2)(S(=O)(=O)c2ccc(F)cc2)S1 (centres undefined)
77 | 150 | N#CCCc1c(SC(F)(F)F)c(C#N)c(Cl)n1-c1c(Cl)cc(C(F)(F)F)cc1Cl
78 | 71 to 73 | CN(C)CCCOc1ccccc1C=NCC(N)=O
79 | 150 to 151 | CC(NC1=Nc2ccccc2C(=O)N(C)C1)c1ccccc1 (centres undefined)
80 | 142 to 143 | O=[N+]([O-])c1cn2c(n1)OC(COc1ccc(N3CCC(Cc4cc5cc(OC(F)(F)F)ccc5o4)CC3)cc1)CC2 (centres undefined)
81 | 40 | CCCCSc1nc(N(C)C(C)=O)c(C#N)s1
82 | 152 to 153 | CCOC(=O)C1(F)C(=O)NC(=O)NC1O/N=C\c1ccco1 (centres undefined)
83 | 182 to 184 | Fc1cc(F)c2c(c1)C[C@@H](n1c(CN3CCOCC3)c[nH]c1=S)CC2
84 | 183 | Cc1nc(Cn2nc(C(F)(F)F)cc2C(F)(F)F)ccc1NC(=O)c1cccc(Cl)c1C(=O)N[C@@H](C)CS(C)=O (some centres undefined)
85 | 56 to 58 | N#CCCc1coc2ccc(Br)cc12
86 | 190 to 193 | O=S(Cc1ccccc1)c1nc2cnccc2[nH]1 (centres undefined)
87 | 123 to 124 | CCc1c(OCc2ccccc2)nc(OCc2ccccc2)nc1C(=O)c1cc(C)cc(C#N)c1
88 | 75.5 to 77.5 | COC(=O)CCC(=O)c1ccc(-c2ccccc2F)cc1
89 | 216 | CCCCN(CCCC)c1ccc2c(c1)O/C(=C1/Oc3cc(N(CCCC)CCCC)ccc3C1=O)C2=O
90 | 89 to 90 | CCOC(=O)C(=O)c1cn(CCCNC(=O)OC(C)(C)C)c2ccccc12
91 | 221 to 225 | CCOC(=O)Cc1c(-c2ccc(Cl)cc2)nn2cccnc12
92 | 135 to 136 | C[C@H](N=C(C(=O)O)C(C)(C)C)c1ccccc1
93 | 257 to 258 | O=C(O)c1ccc(-c2nc(-c3ccc(Cl)cc3)no2)c([N+](=O)[O-])c1
94 | 160 to 162 | O=C(CCCCCCCCCCN1CCN(c2ccccc2)CC1)Nc1ccc(O)cc1
95 | 53 to 55 | CC(=NOCc1ccccc1)C(C)Oc1ccccc1NC(=O)c1cccnc1Cl (centres undefined)
96 | 94 to 95 | COC(=O)C1=C(C)N(C)C(C)C(C(=O)OC)=C1c1ccc(C(F)(F)F)cc1 (centres undefined)
97 | 188 to 190 | O=C1c2cc(O)ccc2OCC1Cc1ccncc1 (centres undefined)
98 | 270 to 272 | CCn1cc(C(=O)O)c(=O)c2cc(F)c(N3CC4CCC3CN4)cc21 (centres undefined)
99 | 100 to 102 | O=C1CCC(C(=O)Nc2ccccc2C(=O)c2ccccc2)O1 (centres undefined)

Row | SMILES | melting point [°C]
100 | Cc1ccc(-c2c[nH]c(-c3ccc4c(c3)C(C)(C)CCC4(C)C)c2)cc1 | 190 to 192
101 | O=C(CBr)c1ccc(Br)c(Br)c1 | 60 to 61
102 | C1=C(c2ccccc2)CCN(Cc2c[nH]c3ncccc23)C1 | 177 to 179
103 | O=[PH](c1ccc2c(c1)OCO2)c1ccc2c(c1)OCO2 | 128
104 | NC(=O)OCC(O)Cn1oc2ccc(Cl)cc2c1=O (centres undefined) | 161 to 162

Source: a melting point compilation (Tetko et al.; mined from patent text by program, amines drawn as free bases though some values may be those of a salt)
